Laboratory results as given in ChEMBL document CHEMBL3856204, “Chiral 6-aryl-furo[2,3-d]pyrimidin-4-amines as EGFR inhibitors” (Eur J Med Chem, 2016).

biological target: Epidermal growth factor receptor (Homo sapiens, UniProt P00533); test: Inhibition of recombinant human GST-tagged EGFR cytoplasmic domain (668 to 1210 residues) expressed in baculovirus by Z'-LYTE assay
Sequence (P00533 whole entry, the tested form may be a part): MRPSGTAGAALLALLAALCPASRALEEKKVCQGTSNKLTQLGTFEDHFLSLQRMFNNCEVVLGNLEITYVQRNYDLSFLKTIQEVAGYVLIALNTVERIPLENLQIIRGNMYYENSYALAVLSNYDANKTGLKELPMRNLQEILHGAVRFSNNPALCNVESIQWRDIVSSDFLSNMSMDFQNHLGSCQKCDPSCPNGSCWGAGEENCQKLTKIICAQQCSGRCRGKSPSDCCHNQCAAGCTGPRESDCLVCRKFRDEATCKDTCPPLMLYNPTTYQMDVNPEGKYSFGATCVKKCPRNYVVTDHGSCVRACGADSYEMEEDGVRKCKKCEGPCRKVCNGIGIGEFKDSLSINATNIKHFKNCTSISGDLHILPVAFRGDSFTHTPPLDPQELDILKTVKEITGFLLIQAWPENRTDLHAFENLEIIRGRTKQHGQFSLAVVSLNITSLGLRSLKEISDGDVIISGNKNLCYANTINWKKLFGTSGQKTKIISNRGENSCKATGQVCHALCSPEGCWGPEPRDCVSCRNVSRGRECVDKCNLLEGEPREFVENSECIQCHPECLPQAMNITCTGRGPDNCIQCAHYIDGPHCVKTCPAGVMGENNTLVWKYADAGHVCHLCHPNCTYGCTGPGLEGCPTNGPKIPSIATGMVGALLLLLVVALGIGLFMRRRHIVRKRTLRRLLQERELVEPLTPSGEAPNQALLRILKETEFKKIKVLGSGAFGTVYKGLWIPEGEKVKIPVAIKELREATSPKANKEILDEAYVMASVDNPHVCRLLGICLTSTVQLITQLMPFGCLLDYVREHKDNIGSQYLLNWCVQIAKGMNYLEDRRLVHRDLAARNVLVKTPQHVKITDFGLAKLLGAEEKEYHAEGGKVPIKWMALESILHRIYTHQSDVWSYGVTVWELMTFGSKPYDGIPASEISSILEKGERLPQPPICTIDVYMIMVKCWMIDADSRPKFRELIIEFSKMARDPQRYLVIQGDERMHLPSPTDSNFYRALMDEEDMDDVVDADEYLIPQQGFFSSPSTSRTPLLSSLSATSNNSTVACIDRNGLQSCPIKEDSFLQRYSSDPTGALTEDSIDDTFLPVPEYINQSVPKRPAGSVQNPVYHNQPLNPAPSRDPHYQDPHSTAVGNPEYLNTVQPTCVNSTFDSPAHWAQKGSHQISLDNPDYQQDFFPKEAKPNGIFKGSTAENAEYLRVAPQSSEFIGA

Row | IC50 | SMILES
1 | 24 nM | COc1ccc(-c2cc3c(N[C@H](C)c4ccccc4F)ncnc3o2)cc1
2 | > 1000 nM | COc1ccc(-c2cc3c(N[C@@H](C)c4ccccc4)ncnc3o2)cc1
3 | 1.5 nM | C[C@@H](Nc1ncnc2oc(-c3ccc(O)cc3)cc12)c1ccccc1
4 | 7 nM | COc1cccc(-c2cc3c(N[C@H](C)c4ccccc4)ncnc3o2)c1
5 | 28 nM | COC[C@@H](Nc1ncnc2oc(-c3ccccc3)cc12)c1ccccc1
6 | 4 nM | COc1ccc(-c2cc3c(N[C@H](CCO)c4ccccc4)ncnc3o2)cc1
7 | 13 nM | C[C@@H](Nc1ncnc2oc(-c3ccc(F)cc3)cc12)c1ccccc1
8 | 11 nM | C[C@@H](Nc1ncnc2oc(-c3ccccc3)cc12)c1ccccc1
9 | > 100 nM | COc1ccc(-c2cc3c(N[C@H](C)C4CCCCC4)ncnc3o2)cc1
10 | 5.3 nM | COc1ccc(-c2cc3c(N[C@H](C)c4ccccc4)ncnc3o2)cc1
11 | 24 nM | COc1ccc(-c2cc3c(N[C@H](C)c4cccc(F)c4)ncnc3o2)cc1
12 | 4 nM | COc1ccccc1-c1cc2c(N[C@H](C)c3ccccc3)ncnc2o1
13 | 22 nM | COc1ccc(-c2cc3c(NC(CC(N)=O)c4ccccc4)ncnc3o2)cc1 (racemic)
14 | 74 nM | COc1ccc(-c2cc3c(NCc4ccccc4)ncnc3o2)cc1
15 | 22 nM | CC[C@@H](Nc1ncnc2oc(-c3ccc(OC)cc3)cc12)c1ccccc1
16 | 44 nM | C[C@@H](Nc1ncnc2oc(-c3ccc(C#N)cc3)cc12)c1ccccc1
17 | 56 nM | C[C@@H](Nc1ncnc2oc(-c3ccc(Br)cc3)cc12)c1ccccc1
18 | 4.6 nM | C[C@@H](Nc1ncnc2oc(-c3cccc(O)c3)cc12)c1ccccc1
19 | 93 nM | c1ccc(CNc2ncnc3oc(-c4ccccc4)cc23)cc1
20 | 1.1 nM | C[C@@H](Nc1ncnc2oc(-c3ccc(NCCN4CCOCC4)cc3)cc12)c1ccccc1
21 | > 100 nM | COc1ccc(-c2cc3c(N[C@@H](C)CO)ncnc3o2)cc1
22 | 29 nM | C=Cc1ccc(-c2cc3c(N[C@H](C)c4ccccc4)ncnc3o2)cc1
23 | 27 nM | COc1ccc(-c2cc3c(N[C@H](C)c4ccc(F)cc4)ncnc3o2)cc1
